Measurements from PMC6017603, “Speeding Up the Identification of Cystic Fibrosis Transmembrane Conductance Regulator-Targeted Drugs: An Approach Based on Bioinformatics Strategies and Surface Plasmon Resonance” (Molecules : A Journal of Synthetic Chemistry and Natural …, 2018).
Values belong to the molecule of their own block, whether it stands above or below them.

What was measured:
ΔF508-NBD1 = target: T1, ΔF508-NBD1 (Mus musculus, UniProt P26361, DEL508-508); assay: SPR direct binding to sensor chip-immobilized ΔF508-NBD1; parameters: species or system murine; details: for RU of ligand bound to ΔF508-NBD1 at equilibrium (maximal RU) / Kd: SPR; for RU of ligand bound to ΔF508-NBD1 at equilibrium (maximal RU): mean ± s.d. of two-three separate analyses; for binding to ΔF508-NBD1 (SPR): increasing concentrations injected over immobilized ΔF508-NBD1; for Kd: Scatchard's plot analysis of equilibrium binding data, mean ± S.D. of two-three analyses, PBS, 0.05% P20, 5% DMSO, pH 7.4, 25 °C
T1 construct: Murine WT NBD1 and ΔF508-NBD1 were obtained from CFTR Folding Consortium; purchased CFTR Folding Consortium (obtained, not a commercial vendor)
Method: SPR measurements were performed on a BIAcore X-100 instrument (GE-Healthcare, Milwaukee, WI, USA), using research-grade CM5 carboxyl-methyl-dextran–coated sensor chips (GE-Healthcare). The murine ΔF508-NBD1 was resuspended at 20 µg/mL in 10 mM sodium acetate pH 4.0 and allowed to react with the first flow cell of a CM5 sensor chip pre-activated with 50 μL of 0.2 M EDC and 0.05 M NHS and deactivated by injection of HCl–ethanolamine. This procedure led to the immobilization of 11,000 RU, equal to approximately 400 fmol/mm^2 of protein. Similar results were obtained for the injection of BSA (20 µg/mL) onto the second flow cell of each sensor chip, used as a negative control and for blank subtraction. The appropriate immobilization of ΔF508-NBD1 was checked by injecting increasing concentrations of K8 in PBS, 0.05% surfactant P20 and 5% DMSO, pH 7.4 over the sensor chip for 90 s at 10 μL/min, 25 °C and then washed until dissociation was observed. The inclusion of 5% DMSO in the running buffer (not necessary for protein-protein interaction analysis) and the short association time were chosen to validate ΔF508-NBD1 binding availability in the experimental conditions used for the subsequent analysis of the compounds (see below).
For the evaluation of their capacity to directly bind to ΔF508-NBD1, increasing concentrations of the various compounds of the data-set were resuspended in PBS, 0.05% surfactant P20 and 5% DMSO, pH 7.4, injected over ΔF508-NBD1 or BSA surfaces for 90 s at 10 μL/min, 25 °C and then washed until dissociation was observed. Steady state analysis were performed by fitting the proper form of Scatchard’s equation for the plot of the bound RU at equilibrium versus the compound concentration in solution. When saturation binding was reached, Kd values were calculated. In the case no saturation could be reached due the limited solubility of the compound under test, the software provided a Kd value expected on the bases of the curve’s trend.

[1] = target: T2, K8/ΔF508-NBD1 interaction (Mus musculus, UniProt P26361, DEL508-508); assay: SPR injection of compounds onto K8-saturated ΔF508-NBD1 surface; assay type: binding, murine; details: compounds at 150 μM; K8 1 µM saturating
T2 construct: Murine WT NBD1 and ΔF508-NBD1 were obtained from CFTR Folding Consortium; purchased ΔF508-NBD1: CFTR Folding Consortium (obtained); K8: Pro-Spec-Tany TechnoGene Ltd
Method: In a further series of experiments, a saturating amount of K8 (1 µM) was injected on the ΔF508-NBD1 surface and allowed to reach an equilibrium binding. Then, the various compounds of the data-set (150 µM) were injected and their capacity to affect the binding of K8 to ΔF508-NBD1 evaluated.

[2] = target: T3, ΔF508-NBD1/K8 interaction (Mus musculus, UniProt P26361, DEL508-508); assay: SPR competition assay: ΔF508-NBD1 binding to immobilized K8 in the presence of compounds; parameters: species or system murine; details: ΔF508-NBD1 600 nM, compound 500 μM; for ΔF508-NBD1 bound to immobilized K8 at equilibrium in the presence of compound: 5% DMSO, ΔF508-NBD1 alone 35 RU
T3 construct: Murine WT NBD1 and ΔF508-NBD1 were obtained from CFTR Folding Consortium; purchased ΔF508-NBD1: CFTR Folding Consortium (obtained); K8: Pro-Spec-Tany TechnoGene Ltd
Method: K8 was used since, as a representative ΔF508-CFTR chaperones, has been repeatedly used for SPR studies and its binding site in ΔF508-CFTR has been mapped. To perform competition assays for the binding to ΔF508-NBD1 between the various compounds and K8, the latter was resuspended at 20 µg/mL in 10 mM sodium acetate pH 4.0 and allowed to react with the first flow cell of a CM5 sensor chip pre-activated with 50 μL of 0.2 M EDC and 0.05 M NHS and deactivated by injection of HCl–ethanolamine. This procedure led to the immobilization of 7800 RU of the protein, (equal to approximately 146 fmol/mm^2). Similar results were obtained for the injection of BSA (10 μg/mL) onto the second flow cell of each sensor chip, that was then used as a negative control and for blank subtraction. ΔF508-NBD1 (at 600 nM) in the absence or in the presence of the various compounds (all at 500 μM) in 0.05% surfactant P20 and 5% DMSO, pH 7.4, was injected over the K8 or BSA surfaces for 90 s at 10 μL/min, 25 °C and then washed until dissociation was observed.

NBD1 = details: cited from earlier work

T3 sequence (P26361 with tags, fused parts or gaps DEL508-508 limits assumed): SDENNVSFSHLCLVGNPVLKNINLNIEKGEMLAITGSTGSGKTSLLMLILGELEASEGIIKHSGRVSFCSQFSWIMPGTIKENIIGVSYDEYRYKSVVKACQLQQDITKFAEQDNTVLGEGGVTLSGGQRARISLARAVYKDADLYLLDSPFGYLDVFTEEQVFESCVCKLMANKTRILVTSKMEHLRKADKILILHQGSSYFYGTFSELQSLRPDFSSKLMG
T1 sequence (P26361 with tags, fused parts or gaps DEL508-508 limits assumed): as above
T2 sequence (P26361 with tags, fused parts or gaps DEL508-508 limits assumed): as above

- RU of ligand bound to ΔF508-NBD1 at equilibrium (maximal RU) (ΔF508-NBD1): 0 to 4 RU
- binding to ΔF508-NBD1 (SPR) (ΔF508-NBD1): do not bind
Molecule: CSc1cccc(Nc2nc(-c3coc4ccccc34)cs2)c1 [Compound 7]

- effect of compound injection on K8-saturated ΔF508-NBD1 surface [1]: increase of bound RU
- Kd (ΔF508-NBD1): 40.3 ± 2.5 µM
- RU of ligand bound to ΔF508-NBD1 at equilibrium (maximal RU) (ΔF508-NBD1): 13.0 ± 1.4 RU
- ΔF508-NBD1 bound to immobilized K8 at equilibrium in the presence of compound [2]: 45 RU
Molecule: CSc1cccc(Nc2nc(-c3cccc(Cl)c3)cs2)c1 [Compound 5]

- binding to ΔF508-NBD1 (SPR) (ΔF508-NBD1): do not bind
Molecule: CC(C)(C)c1cc(C(C)(C)C)c(NC(=O)c2c[nH]c3ccccc3c2=O)cc1O [VX770, Ivacaftor, reference compound]
- binding to NBD1 (NBD1): does not bind to NBD1

- Kd (ΔF508-NBD1): 99.3 ± 14.5 µM
- RU of ligand bound to ΔF508-NBD1 at equilibrium (maximal RU) (ΔF508-NBD1): 32.0 ± 4.2 RU
- inhibition at 500 µM [2]: 50%
Molecule: CSc1cccc(Nc2nc(-c3ccc(Br)cc3)cs2)c1 [Compound 4]
- effect of compound injection on K8-saturated ΔF508-NBD1 surface [1]: inability of compounds 4 and 6 to alter the binding of K8

- binding to ΔF508-NBD1 (SPR) (ΔF508-NBD1): do not bind
Molecule: COc1ccc(Cl)cc1Nc1nc(-c2sc(NC(=O)c3ccccc3)nc2C)cs1 [C4a, reference compound]
- binding to NBD1 (NBD1): does not bind to NBD1

- effect of compound injection on K8-saturated ΔF508-NBD1 surface [1]: increase of bound RU
- Kd (ΔF508-NBD1): 24.2 ± 6.2 µM
- RU of ligand bound to ΔF508-NBD1 at equilibrium (maximal RU) (ΔF508-NBD1): 163.7 ± 23.7 RU
- ΔF508-NBD1 bound to immobilized K8 at equilibrium in the presence of compound [2]: 68 RU
Molecule: Cc1ccc(NC(=O)C2(c3ccc4c(c3)OC(F)(F)O4)CC2)nc1-c1cccc(C(=O)O)c1 [VX809, Lumacaftor, reference compound]

- Kd (ΔF508-NBD1): 198 ± 4.5 µM
- RU of ligand bound to ΔF508-NBD1 at equilibrium (maximal RU) (ΔF508-NBD1): 114.0 ± 5.6 RU
- effect on the ΔF508-NBD1/K8 interaction [2]: ineffective
Molecule: CSc1cccc(Nc2nc(-c3ccc4[nH]c(=O)oc4c3)cs2)c1 [Compound 6]
- effect of compound injection on K8-saturated ΔF508-NBD1 surface [1]: inability of compounds 4 and 6 to alter the binding of K8

- binding of K8 to immobilized ΔF508-NBD1 (ΔF508-NBD1; K8 600 nM, BSA surface as negative control): specifically binds
B1: K8: keratin 8, known CFTR chaperone, purchased recombinant protein (protein, UniProt P05787 1-483, looked up)
Keratin, type II cytoskeletal …: MSIRVTQKSYKVSTSGPRAFSSRSYTSGPGSRISSSSFSRVGSSNFRGGLGGGYGGASGMGGITAVTVNQSLLSPLVLEVDPNIQAVRTQEKEQIKTLNNKFASFIDKVRFLEQQNKMLETKWSLLQQQKTARSNMDNMFESYINNLRRQLETLGQEKLKLEAELGNMQGLVEDFKNKYEDEINKRTEMENEFVLIKKDVDEAYMNKVELESRLEGLTDEINFLRQLYEEEIRELQSQISDTSVVLSMDNSRSLDMDSIIAEVKAQYEDIANRSRAEAESMYQIKYEELQSLAGKHGDDLRRTKTEISEMNRNISRLQAEIEGLKGQRASLEAAIADAEQRGELAIKDANAKLSELEAALQRAKQDMARQLREYQELMNVKLALDIEIATYRKLLEGEESRLESGMQNMSIHTKTTSGYAGGLSSAYGGLTSPGLSYSLGSSFGSGAGSSSFSRTSSSRAVVVKKIETRDGKLVSESSDVLPK
